Assay results as given in US4590191A, “Soporific containing lorazepam” (Medichemie AG, priority 1984, dated 1986).
Read-outs that look alike come from different tables or passages of the source.

Tests used:
white mice = test: Acute oral toxicity (lethality) in mice; settings: oral, mice
Text: (§1) and of the combined preparation of 25 parts by weight
Doses in mg/kg Body Weight

[1] = Acute oral toxicity (lethality) in mice; settings: mouse, in vivo, po
Text: as §1
Doses in mg/kg Body Weight

[2] = cited from earlier work

Row | Structure (SMILES) | DL 95 (white mice) | LD50 [1] | hypnotic or soporific effect (in words) ([2]; 1 mg) | side effects (in words) ([2]; 2 to 3 mg, in individual cases) | half-life (in words) ([2]; in vivo) | ratio between effect and tolerance (in words) ([2]; single dose of 1 mg) | side effects (in words) ([2]; somewhat higher doses, may occur in the next few days)
1 | CN(C)CCOC(c1ccccc1)c1ccccc1 [diphenhydramine, 2-(diphenyl-methoxy)-N,N-dimethyl ethanamine] | 645 mg/kg | – | – | – | – | – | –
2 | O=C1Nc2ccc(Cl)cc2C(c2ccccc2Cl)=NC1O (stereo not shown) [lorazepam, 7-chlor-5-(2-chlorphenyl)-1,3-dihydro-3-hydroxy-2H-1,4 benzodiazepin-2-on] | – | 3180 mg/kg | often insufficient | subjectively unpleasant side effects can occur | medium half-life | especially good ratio between effect and tolerance | relatively strong side effects, such as muscle relaxation, ataxia and sedative after-effects
